This note sets out measurements from EP2144590B1, “SKIN TREATMENT COMPOSITIONS AND METHODS” (Sytheon Ltd., priority 2007, dated 2008).

Where two headings read alike, the source gives them in different places.

The subject of series [1] is Propionibacterium acne. Nature of the series: Median inhibitory concentration (IC50) in BHI broth, reading at 610 nm. It is filed as cell-based. The procedure: (§1) Two series of tests were conducted to evaluate the bioefficacy of bakuchiol, salicylic acid and the combination of the two against Propionibacterium acne. The first evaluated the median inhibitory concentration (IC50) of each of the two actives in order to set the dosing for the second test. The second test ascertained the bioefficacy, as represented by the zone of inhibition, of each active and their combination in relation to P. acne. In both sets of tests, inoculums of 1.0 x 10^6 cfu/ml P. acne were used.
P. acne organisms were inoculated into Brain Heart Infusion (BHI) broth and incubated at 37°C for 24 hrs. Thereafter, the culture was serially diluted to a 10^-6 dilution. 100 µl aliquots of the 10^-6 dilution culture were then added to sterile test tubes containing 10 ml fresh BHI broth serial solutions of bakuchiol or salicylic acid. The serial solutions contained either active at from 0.5 to 50 µg/ml concentrations in 0.5 µg/ml increments, i.e., 0.5, 1.0, 1.5,..., 50.0 µg/ml. An inoculated control, free of either active, was also evaluated. The inoculated test tubes were then incubated at 37°C for 48 hrs. UV spectrophotometric readings were then made of each test tube at 610 nm and the values plotted.

Series [2] has as its system Propionibacterium acne. Nature of the series: Zone of inhibition (agar well diffusion technique). In kind it is cell-based. As for the experimental part:
as §1
Agar plates were prepared by first pouring sterile molten agar into petriplates to a depth of 6mm. After allowing the agar to solidify sufficiently, a well of 10 mm diameter was prepared by carefully punching and removing a 10 mm diameter plug of agar without lifting the surrounding medium. In this experiment, all cultures used were adjusted to the turbidity of 0.5 McFarland per the standard procedure and then 0.1 ml of each culture was spread plated onto the agar plates. Appropriate controls were maintained.
Stock solutions of the actives to be tested were prepared by dissolving 1 mg of each of the actives, Sytenol A bakuchiol and salicylic acid, in separate 5 ml quantities of dimethyl sulfoxide (DMSO) at room temperature: though slight warming was employed to expedite the dissolution of the salicylic acid. These stock solutions were then diluted or mixed and diluted to produce sample solutions having the concentrations of each active as noted in Table 4 and the well of each plate filled with the appropriate solution by capillary pipette. Nothing was placed in the well of the control.
Following inoculation and addition of the test sample to the well, each plate was then covered and incubated for 48 hours at 37 °C. Following incubation, the plates were removed and the zones of inhibition recorded and tabulated. […] When both actives were present at one-half the median inhibitory concentration, […] (Sample F); however, it seemed that the apparent ineffectiveness of the salicylic acid at this level appeared to offset or counteract the effectiveness of the bakuchiol. Consequently, at least for salicylic acid, at least one-half and preferably at least the median inhibitory concentration of the dermatological acid should be used.
(A growth-free zone around the sample is the usual read-out of agar diffusion tests.)

The subject of series [3] is Clostridium collagenase IV. Nature of the series: Collagenase inhibitory activity (Enzcheck kit, quenched fluorescent gelatin). In kind it is biochemical. The procedure:
In order to ascertain whether other benefits may be attained by the use of meroterpenes in skin care formulations, a study was conducted on the impact, if any, the presence of bakuchiol may have on collagenase: a collagenolytic enzyme responsible for much of the collagen damage associated with UV exposure and photoaging in general. Collagenase activity was measured with an Enzcheck kit from Molecular Probes (Carlsbad, CA, USA) using quenched fluorescent gelatin and Clostridium collagenase IV, a generic metalloproteinase. Test material (aqueous solutions 1000ug/ml, 100ug/ml, 10ug/ml and 1ug/ml made from 10mg/ml stock in DMSO) was incubated in the presence of collagenase substrate - quenched fluorescin-linked gelatin and in the presence of the proteolytic enzyme. Phenanthroline, a potent metalloprotease (MP) inhibitor was used as positive control at 100ug/ml. The kinetics of the release of the digested, fluorescent gelatin were measured at excitation/emission wavelengths of 485/530nm with Millipore Cytofluor 2350 microfluorometer.

In series [4] the target is T1, human neutrophil elastase (Homo sapiens, UniProt P08246).
T1 construct: purchased Calbiochem of San Diego, CA, US 324681
T1 sequence (P08246 30-247 limits assumed): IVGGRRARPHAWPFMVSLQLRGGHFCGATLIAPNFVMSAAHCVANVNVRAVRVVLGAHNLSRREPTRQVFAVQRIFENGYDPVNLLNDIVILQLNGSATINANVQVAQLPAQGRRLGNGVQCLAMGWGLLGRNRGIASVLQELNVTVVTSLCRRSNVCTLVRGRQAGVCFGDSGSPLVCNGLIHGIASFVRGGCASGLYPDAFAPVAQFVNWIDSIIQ
As to the kind of experiment: Elastase inhibitory activity (colorimetric substrate Suc-Ala-Ala-Ala-pNA, 410 nm). It is filed as biochemical. The following applies: for remaining activity at 1 µg/mL: 1 ug/ml; for remaining activity at 1 µg/mL / remaining activity at 5 µg/mL / remaining activity at 25 µg/mL: average of three runs, water = 100, read-out: Elastase Activity (% of Control); for remaining activity at 5 µg/mL: 5 ug/ml; for remaining activity at 25 µg/mL: 25 ug/ml; for elastase inhibitory effect: at the concentrations tested.

Series [5] can be described thus: Skin sensitivity: repeated occlusive patch test, nine inductive patchings and a challenge. In kind it is in vivo. The following applies: 5% dilution in corn oil, 111 subjects. As for the experimental part:
Reactions were scored 24 and 48 hours after application.

As to `O=C(O)c1ccccc1O` [Salicylic acid, 2-hydroxybenzoic acid], the IC50 – broadly, the concentration needed to halve the response being measured – in the series with Propionibacterium acne [1] (48 h) stood at 29 µg/mL. Further, in the series on Propionibacterium acne [2] (Propionibacterium), the zone of inhibition (as a rule, the extent of the growth-free halo in a diffusion test) at 29 µg/mL came to 12 mm and the zone of inhibition at 58 µg/mL stood at 12 mm. In addition, in the series on Propionibacterium acne [2] (Sample C: Salicylic acid 14.5 µg/ml), the “Zone of Inhibition” value was “No Inhibition”.
For `C=C[C@@](C)(/C=C/c1ccc(O)cc1)CCC=C(C)C` [Bakuchiol], in series [3], the “Collagenase median inhibitory concentration (IC50)” value is reported as ~0.1 % (w/w). In addition, in series [4], the remaining activity at 1 µg/mL is 31%, the remaining activity at 5 µg/mL came out at 65%, the remaining activity at 25 µg/mL came out at 77% and the elastase inhibitory effect entry is “clear elastase inhibition at all concentrations tested”. For the same compound, in series [5], the primary irritation entry is on record as “NON-PRIMARY IRRITANT” and the sensitization entry was “NON-PRIMARY SENSITIZER”. Besides, in the series with Propionibacterium acne [1] (48 hrs at 37°C, read-out: IC50), the IC50 stood at 0.6 µg/mL. Also, the zone of inhibition at 0.3 µg/mL with Propionibacterium acne [2] (Propionibacterium, Sample A: Bakuchiol 0.3 µg/ml) came to 35 mm. The zone of inhibition at 0.6 µg/mL in the series on Propionibacterium acne [2] (Propionibacterium, Sample B: Bakuchiol 0.6 µg/ml) amounted to 37 mm.
Turning to `CC1=C(/C=C/C(C)=C/C=C/C(C)=C/CO)C(C)(C)CCC1` [Retinol, reference compound], in series [4], the remaining activity at 1 µg/mL is 87%, the remaining activity at 5 µg/mL came out at 138%, the remaining activity at 25 µg/mL was 416% and the elastase inhibitory effect entry is reported as “no statistically significant elastase inhibitory effect”.
